The record followed here is patent US11026965B2, “Nitric oxide-releasing cyclodextrins as biodegradable antibacterial scaffolds and methods pertaining thereto” (The University of North Carolina at Chapel Hill, priority 2018, dated 2021).

Structures are written as SMILES. ≈ marks a conversion by molar mass, not a printed value. Like-named read-outs stand apart in the source and are kept apart here.

One series has as its system planktonic P. aeruginosa. As to the kind of experiment: Bactericidal assay against planktonic P. aeruginosa (4 h, static, MBC4h = 3-log reduction). It counts as cell-based, Pseudomonas aeruginosa. Particulars: for MBC: Pseudomonas aeruginosa. As for the experimental part:
Nitric oxide may be an efficient antibacterial agent. The antibacterial activity of the NO-releasing CD derivatives was evaluated against Gram-negative P. aeruginosa, a model pathogen associated with serious medical infections (e.g., traumatic burns, cystic fibrosis). Pseudomonas aeruginosa is a Gram-negative pathogen. Bacterial viability assays were performed under static conditions. Minimum bactericidal concentrations over 4 hours exposure (MBC4h) were used to quantify their bactericidal activity, being required to eliminate bacteria viability by 3 logs (e.g., 99.9% killing). The total NO amount delivered by NO-releasing CD derivatives over this period was also calculated to quantitatively evaluate the required NO dose to achieve bactericidal activity.
The TSA bacterial stock of P. aeruginosa colony was cultured in 3 mL of TSB overnight (around 16 hours) at 37° C. A 1000 μL aliquot of the resulting suspension was added into 15 mL of fresh TSB and incubated at 37° C. for another 2 hours, to achieve a concentration of 10^8 colony forming units per mL (CFU/mL, confirmed by the OD600). The bacteria was collected by centrifugation, resuspended in sterile PBS, and diluted to 10^6 CFU/mL. The antibacterial efficacy of both non-NO-releasing and NO-releasing CD derivatives against P. aeruginosa was evaluated under static condition over 4 hours at 37° C. Blanks (untreated cells) were incubated in each experiment to ensure the bacteria remained viable at 10^6 CFU/mL over 4 hour assay. 100 μL aliquots of blank, control or NO-releasing CD derivatives treated bacteria suspensions were shifted, diluted 10-fold in sterile H2O and plated on TSA plates using an Eddy Jet spiral plater (IUL; Farmingdale, N.Y.), followed by incubation overnight at 37° C. Bacterial viability was evaluated via total colony count on the TSA plates by using a Flash & Go colony counter (IUL; Farmingdale, N.Y.). […] Of note, the limit of detection for this selected plate counting method is 2.5×10^3 CFU/mL.
Additional testing was done to determine the antibacterial efficacy and toxicity of DETA, DETA/NO (DETA functionalized with NO), and DETA/NO mixed with CD (at ratios of 1:1 or 1:2) as compared to CD-DETA or CD-DETA/NO (CD-DETA functionalized with NO). The same conditions as disclosed above for antibacterial testing and cytotoxicity was used.

In another series the test system is L929 mouse fibroblasts. As to the kind of experiment: In-vitro cytotoxicity, L929 mouse fibroblasts, MTS, 4 h exposure. The class given is cell-based. As to the method: L929 mouse fibroblasts were cultured in DMEM supplemented with 10% v/v fetal bovine serum (FBS) and 1 wt % penicillin/streptomycin, and incubated in 5% v/v CO2 under humidified conditions at 37° C. After reaching confluency (80%), the cells were trypsinized, seeded onto tissue-culture treated polystyrene 96-well plates at a density of 1×10^4 cells/mL, and incubated at 37° C. for 24 hours. The supernatant was then aspirated and replaced with 100 μL of fresh growth medium containing various concentrations of both unmodified control and NO-releasing CD derivatives to each well. After incubation at 37° C. for 4 hours, the supernatant was aspirated and 100 μL of a mixture of DMEM/MTS/PMS (105/20/1, v/v/v) was added to each well. The absorbance of the resulting colored solutions over 3 hours incubation was quantified by using a ThermoScientific Multiskan EX plate reader (Waltham, Mass.) at 490 nm. The mixture of DMEM/MTS/PMS and untreated cells were used as a blank and control, respectively. Cell viability was calculated according to the following formula: […]
Despite effective bactericidal capability, the applicability of new antibacterial agents is also determined by their toxicity to mammalian cells. With respect to therapeutic potential, toxicity to mammalian cells is an important factor in the development of any new antibacterial agent. The cytotoxicity of CD-NONOates was evaluated by exposing mouse fibroblast cells to various concentrations (0˜2000 μg/mL) of both control and NO-releasing CD derivatives over a 4 hour exposure. […] Both CD-PA7/NO and CD-MA7/NO were tolerable to the mouse fibroblasts even at 2000 μg/mL (63% and 73% cell viability for CD-PA7/NO and CD-MA7/NO, respectively). […] The behavior is in part related to the effective delivery of NO induced by the fast cellular uptake of positively charged macromolecular systems. This behavior was also ascribed to the large amounts of terminal primary amines groups.

For series [1], the system named is A549 human lung carcinoma cells. As to the kind of experiment: Anticancer action against A549 cells, 24 h MTS assay. It counts as cell-based. Particulars: A549, 24 h MTS; error = 95% confidence interval for IC50. As for the experimental part: Anticancer potential was evaluated against A549 human lung carcinoma cells using an MTS assay. […] All cell work performed in RPMI media and materials corrected for pH using 0.1 M HCl. […]
In general terms: Tetrazolium assays rely on reduction of a dye to a coloured formazan, in cell work by metabolically active cells.

The nature of series [2]: NO-release properties of NO-releasing cyclodextrins at pH 5.4 and pH 7.4 (Table 5). The class given is physicochemical. As to the method: Additional studies were carried out to investigate NO-release properties from β-cyclodextrin under conditions consistent with healthy tissue (pH 7.4) and those of tumor microenvironments (pH 5.4). These studies also evaluated the role of NO-release properties on anticancer action using A549 lung cancer cells with two modifications to vary release kinetics (mono- and hepta-substitution to vary NO totals). This study also evaluated the efficacy of a combined therapeutic (a nitric oxide releasing CD with DOX) as compared to each therapeutic agent individually. […] Several different functionalized CDs were prepared as shown in Table 5 and using techniques as described elsewhere herein. […] All modifications (PA, DETA, and DETA7) except for PA7 have t1/2 under 10 min.

The mark [3] stands for this setting: 4 h exposure, 3-log reduction in viability.

In the case of `NCCNCCN` [DETA, diethylenetriamine], the “bactericidal efficacy (in words)” value in the series with planktonic P. aeruginosa (4 h incubation) was “highly antimicrobial”. For the same molecule, the MBC in the series with planktonic P. aeruginosa (4 h exposure, 3-log reduction in viability, read-out: MBC4 h) was determined as 250 µg/mL (≈ 2420 µM). Besides, the “concentration at which toxic” value with L929 mouse fibroblasts (FIG. 21e) turned out to be 4000 µg/mL.
`CCCNCC1OC2OC3C(CO)OC(OC4C(CO)OC(OC5C(CO)OC(OC6C(CO)OC(OC7C(CO)OC(OC8C(CO)OC(OC1C(O)C2O)C(O)C8O)C(O)C7O)C(O)C6O)C(O)C5O)C(O)C4O)C(O)C3O` (stereo not drawn) [CD-PA] returned an NO dose in series [1] of 0.97 ± 0.16 µmol/mL. In series [2] (pH 5.4), the “[NO]max” value stood at 25100 ± 5700 ppb mg^−1, the “[NO]t” value is 0.56 ± 0.09 µmol/mg and the td came out at 5.0 ± 0.8 h. In addition, in series [2] (pH 7.4), the “[NO]max” value is 2100 ± 300 ppb mg^−1, the “[NO]t” value is 0.60 ± 0.07 µmol/mg and the td turned out to be 17.0 ± 1.0 h.
With `NCCNCCNCC1OC2OC3C(CO)OC(OC4C(CO)OC(OC5C(CO)OC(OC6C(CO)OC(OC7C(CO)OC(OC8C(CO)OC(OC1C(O)C2O)C(O)C8O)C(O)C7O)C(O)C6O)C(O)C5O)C(O)C4O)C(O)C3O` (stereo not drawn) [CD-DETA], in series [1], the NO dose came to 1.07 ± 0.06 µmol/mL. Besides, the results for the “[NO]max” value in series [2] (pH 5.4) and in series [2] (pH 7.4) were 32000 ± 2500 ppb mg^−1 and 900 ± 100 ppb mg^−1, respectively. The “[NO]t” value is 0.74 ± 0.04 µmol/mg in series [2] (pH 5.4) and 0.68 ± 0.03 µmol/mg in series [2] (pH 7.4). The td in series [2] (pH 5.4) amounted to 14.6 ± 0.8 h; in series [2] (pH 7.4), 20.2 ± 0.6 h. Besides, the MBC4 h with planktonic P. aeruginosa (4 h exposure) and in the series with planktonic P. aeruginosa (setting [3]) was 8000 µg/mL each time. In the series on L929 mouse fibroblasts (up to 2 mg/mL), this molecule yielded an L929 viability above 60%.
As for `CC(CN1c2ccccc2Sc2ccccc21)N(C)C` (stereo not drawn) [PM, promethazine], the MBC with planktonic P. aeruginosa (concentration of PM, PM and CD derivative 1:1 molar, read-out: PM MBC4 h) was determined as 100 µg/mL (≈ 352 µM). Moreover, the MBC4h for PM against planktonic P. aeruginosa (concentration of PM) came to 100 µg/mL. Besides, the “cytotoxicity at MBC4h concentration (in words)” value in the series with L929 mouse fibroblasts is “toxic to the vast majority of the mouse fibroblast cells”.
On to `NCCN(CCN)/[N+]([O-])=N/O` [DETA/NO], for which the MBC4 h in the series on planktonic P. aeruginosa (setting [3]) was 1000 µg/mL.
